The test system of one data set is COX-2. Conditions: animal models of Parkinson's disease; cited from earlier work.
The target of a further data set is T1, msrA (Bos taurus, UniProt P54149).
T1 construct: made in house; host or cells: E. coli
T1 sequence (P54149 21-233): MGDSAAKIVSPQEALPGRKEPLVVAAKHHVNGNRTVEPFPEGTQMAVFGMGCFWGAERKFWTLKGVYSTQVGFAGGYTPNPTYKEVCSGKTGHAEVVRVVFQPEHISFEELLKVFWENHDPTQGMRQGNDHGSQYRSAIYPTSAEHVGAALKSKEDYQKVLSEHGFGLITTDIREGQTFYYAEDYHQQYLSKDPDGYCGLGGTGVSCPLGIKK
Description: Calorimetric test of whether a compound is turned over by msrA (protein injected into compound solution). The format is biochemical, bovine. To be noted: compound at 500 μM or as high as possible, three injections of msrA, heat evolved. Here is the method: Compounds 105-108 in the list were only soluble below 1 mM. However, an assessment was made as to whether those compounds were substrates for msrA (i.e., whether they are turned over by the enzyme), by employing the following experimental protocol. The compounds were dissolved in the usual buffer [50 mM Tris, 50 mM KCl, 5 mM TCEP, pH 7.50] at a concentration of 500 μM, or as high as possible. 1.8 ml of this solution was loaded into the calorimetric cell, while the syringe was filled with a […] solution of msrA in the same buffer. After the stirring and equilibration period has elapsed, three injections of protein were made, spaced out over 20 minute intervals. If the compound is a substrate for msrA, a large amount of heat will be evolved after the first injection (several millicalories generated over ˜10 minutes), while the other two injections of protein will register only small heats (tens of microcalories), before the signal quickly returns to the baseline. These smaller heats represent the heat of dilution of the protein into the solution in the calorimetric cell.
Once the substrate has been fully reacted and the heat output has returned to the baseline, further injections of protein show only the heat of dilution of the enzyme.

The target in the next data set is T2, bovine msrA (Bos taurus, UniProt P54149).
T2 construct: made in house; host or cells: E. coli
T2 sequence (P54149 21-233): T1 sequence (P54149 21-233)
Description: Methionine sulfoxide reductase assay by isothermal titration calorimetry (kcat, KM). The format is biochemical. To be noted: substrate for msrA; 300 nM enzyme, pH 7.50, 37° C. As for the experimental part: (§1) The compounds of the present invention may be assayed for activity both in vitro and in vivo. For example, in order to assay whether a compound of this invention will serve as a regenerable Msr substrate, the compound is titrated in several increments into a solution of the enzyme msrA (pH 7.5, 37 °C, reducing buffer) contained in a microcalorimeter. The heat (ΔH) from the reaction is measured at each step. These power output levels are converted into rates of reaction according to Todd & Gomez, Anal. Biochem., 296, pp. 1-9 (2001), and the resulting rates are plotted versus substrate concentration. From this plot, the kcat and KM are determined according to standard Michaelis-Menton enzyme kinetics.
An assay using isothermal titration calorimetry was developed. […] The quicker such compounds are converted back to their reduced form by MSR, the more equivalents of ROS they will eliminate before being cleared from the body. The assay was used to determine the enzymatic parameters (kcat and KM) of the compounds of this invention interacting with msrA under standard conditions. Chemical modifications that increase kcat, a measure of how quickly a compound was turned over by the enzyme, and/or decrease its KM, a measure of how readily a compound bound to the enzyme, represent improvements in that compound's ability to be efficiently processed by msrA.
In order to run the assay bovine msrA was overexpressed in E. coli and purified according to the method described in Lowther et al., Proc. Natl. Acad. Sci. USA, 97, pp. 6463-6468 (2000), the disclosure of which is herein incorporated by reference. A 300 nM solution of the enzyme was prepared in 50 mM Tris, 50 mM KCl, 4 mM tris(carboxyethyl)phosphine (TCEP), pH 7.50. A 25 mM solution of the compound to be tested was prepared in the identical buffer. A 1.8 ml aliquot of the msrA enzyme solution was loaded into the cell of a VP-ITC instrument from Microcal Corp. (Northampton, Mass.). The test compound solution was loaded into the syringe, and the entire system was allowed to come to thermal equilibrium at 37° C. while stirring at a rate of 300 rpm. Once equilibrium was established, a series of small injections ([…]) of the compound into the protein solution were made, and the increasing power output of the enzyme was measured after each injection, relative to the instrument baseline. These power output levels were converted into rates of reaction, according to Todd & Gomez, Anal. Biochem., 296, pp. 1-9 (2001), the disclosure of which is herein incorporated, and the resulting rates were plotted against substrate concentration. From this plot, the kcat and KM were determined with a computer fitting routine according to standard Michaelis-Menton enzyme kinetics.
To ensure that the compounds would be substrates for MSR, we determined the substrate specificities of MSR by choosing test compounds that contained a sulfoxide moiety and testing those compounds for MSR activity in the enzyme assay described below. Table 1 sets forth compounds that were tested for their ability to serve as MSR substrates using the isothermal titration calorimetry assay described above: […]
(In general: ITC needs no label: the signal is the heat of the interaction.)

Data set [1] is described as follows: Solubility of test compounds in assay buffer. The format is physicochemical. Conditions: Tris assay buffer, pH 7.5, aqueous buffer; 50 mM Tris, 50 mM KCl, 5 mM TCEP, pH 7.50.
In the next data set the test system is reactive oxygen species. To be noted: systemic injection; cited from earlier work.
Substrate in data set [2]: C[S+]([O-])CC[C@H](N)C(=O)O
The data set is described as follows: purified protein, by the assay type. Conditions: other: substrate for msrA, 300 nM enzyme, pH 7.50, 37° C, pH 7.5.

Substrate in data set [3]: CC1=C(CC(=O)O)c2cc(F)ccc2/C1=C\c1ccc([S+](C)[O-])cc1
Description: purified protein, by the assay type. Conditions: other: substrate for msrA, 300 nM enzyme, pH 7.50, 37° C, pH 7.5.

Substrate in data set [4]: CC1=C(CC(=O)NC(CC[S+](C)[O-])C(=O)O)c2cc(F)ccc2/C1=C\c1ccc([S+](C)[O-])cc1
The data set is described as follows: purified protein, by the assay type. It counts as biochemical, bovine. Conditions: other: substrate for msrA, 300 nM enzyme, pH 7.50, 37° C, pH 7.5. Here is the method: as §1
An assay using isothermal titration calorimetry was developed. […] Chemical modifications that increase kcat, a measure of how quickly a compound was turned over by the enzyme, and/or decrease its KM, a measure of how readily a compound bound to the enzyme, represent improvements in that compound's ability to be efficiently processed by msrA. […]
To ensure that the compounds would be substrates for MSR, we determined the substrate specificities of MSR by choosing test compounds that contained a sulfoxide moiety and testing those compounds for MSR activity in the enzyme assay described below. […]

As a reminder, the Km is the concentration of substrate that gives half-maximal velocity. A word on the solubility: it is how much of the substance goes into solution per volume. As a reminder, the kcat is the maximal rate divided by the concentration of active sites.

For the molecule `CS(=O)(=O)c1ccc(C2=C(c3ccccc3)C(=O)OC2)cc1` [Vioxx], the “partial recovery of dopamine production” value with COX-2 is approximately 20%. As for `C[S+]([O-])CC[C@H](N)C(=O)O` (some centres unmarked) [compound 100, methionine sulfoxide], the “substrate for msrA (turned over by the enzyme)” value on msrA is on record as “produces the large heat output”. As for `C[S+]([O-])c1ccccc1` (centres unmarked) [compound 102, methyphenylsulfoxide], on bovine msrA, the Kcat was 0.46 s⁻¹ and the Michaelis constant (Km) turned out to be 750 µM. On the same counts, the results for `C[S+](C)[O-]` [compound 103, DMSO] are 0.064 s⁻¹ and 314 µM.

Molecule `C[S+]([O-])c1ccc(-c2cc(C(F)(F)F)nn2-c2ccc(S(N)(=O)=O)cc2)cc1` (centres unmarked) [compound 105] yielded a solubility in data set [1] of less than 1000 µM. On the same count and under the same terms, next, `C[S+]([O-])c1ccc(CC(=O)O)cc1` (centres unmarked) [compound 106]: less than 1000 µM; `CSc1ccc(/C=C2/C(C)=C(CC(=O)NC(CC[S+](C)[O-])C(=O)O)c3cc(F)ccc32)cc1` (centres unmarked) [compound 107]: less than 1000 µM.

Consider `C[S+]([O-])c1ccc(-c2cc(C(=O)O)nn2-c2ccc(S(N)(=O)=O)cc2)cc1` (centres unmarked) [compound 108], for which, in data set [1], the solubility is less than 1000 µM. `CS(=O)(=O)CC[C@H](N)C(=O)O` [compound 109, methionine sulfone] gave a Kcat at bovine msrA of 0 s⁻¹. Moreover, the entries for the “substrate for msrA (turned over by the enzyme)” value on msrA and at msrA (listed as methionine sulfone) were “does not get turned over by msrA” and “not a substrate for msrA”, respectively. `CC(C)(C)[N+]([O-])=Cc1ccccc1` [phenyl-N-tert-butylnitrone (PBN), phenyl-N-tert-butylnitrone]: the “relief of SNL-induced mechanical allodynia” value with reactive oxygen species is “relieves SNL-induced mechanical allodynia in a dose-dependent manner”.

B1: bovine msrA (Bos taurus) (protein)
chain: T1 sequence (P54149 21-233)
notes: made in house; host or cells: E. coli
As to B1, the Km in data set [2] worked out at 0.504 mM; in data set [3], 0.112 mM; in data set [4] it was 7.6 µM. The catalytic constant (kcat) was found to be 0.27 s⁻¹ in data set [2], 0.56 s⁻¹ in data set [3] and 0.27 s⁻¹ in data set [4].

The values above are taken from US20060014813A1, “Pharmaceutical compounds that regenerate in vivo” (priority 2003, published 2006).
